Results reported in patent US9068081B2, “Thiophene azo dyes and laundry care compositions containing the same” (MILLIKEN & COMPANY, priority 2010, dated 2015).

Experiment: Aqueous partition value of a dye (water/1-octanol partitioning)
Assay type: physicochemical
Details: deionized water / 1-octanol 10.0 mL each, absorbance at dye λmax, (Af/Ai)×100%
Description: Dissolve in deionized water to a final volume of 10.0 mL an amount of dye sufficient to provide a solution absorbance value between 0.25 and 1.0, said absorbance being determined at the dye λmax between 400 nm and 750 nm, using a cuvette with 1.0 cm path length. Measure the absorbance of the sample at the dye λmax in a UV/Vis spectrophotometer, then transfer the entire 10.0 mL solution to a 50.0 mL plastic centrifuge tube. Add 10.0 mL of 1-octanol, cap the tube, and mix vigorously for 30 seconds using a Vortex™ mixer. Leave the tube standing undisturbed until the layers cleanly phase separate.
Using a transfer pipette, withdraw an aliquot of the aqueous (bottom) layer and transfer it to a cuvette with 1.0 cm path length for spectrophotometric analysis. Analyze the solution as before, and quantify the absorbance loss at λmax as “% of Dye Remaining in Aqueous Layer” as detailed below: % of Dye Remaining in Aqueous Layer=Aqueous Partition Value (APV)=(Af/Ai)×100% wherein Ai is the initial solution absorbance at λmax and Af is the final solution absorbance at λmax. II. Method for Determining Hueing Efficiency for Detergents • a.) Two 25 cm×25 cm fabric swatches of 16 oz white cotton interlock knit fabric (270 g/square meter, brightened with Uvitex BNB fluorescent whitening agent, from Test Fabrics. P.O. Box 26, Weston, Pa., 18643) are obtained. • b.) Prepare two one liter aliquots of tap water containing 1.55 g of AATCC standard heavy duty liquid (HDL) test detergent. • c.) Add a sufficient amount the dye to be tested to one of the aliquots from Step b.) above to produce an aqueous solution absorbance of 1 AU. • d.) Wash one swatch from a.) above in one of the aliquots of water containing 1.55 g of AATCC standard heavy duty liquid (HDL) test detergent and wash the other swatch in the other aliquot. Such washing step should be conducted for 30 minutes at room temperature with agitation. After such washing step separately rinse the swatches in tap water and air dry the swatches in the dark. • e.) After rinsing and drying each swatch, the hueing efficiency, DE*eff, of the dye is assessed by determining the L*, a*, and b* value measurements of each swatch using a Hunter LabScan XE reflectance spectrophotometer with D65 illumination, 10° observer and UV filter excluded. The hueing efficiency of the dye is then calculated using the following equation: DE*eff=((L*c−Ls)^2+(a*c−a*s)^2+(b*c−b*s)^2)^1/2 • wherein the subscripts c and s respectively refer to the L*, a*, and b* values measured for the control, i.e., the fabric sample washed in detergent with no dye, and the fabric sample washed in detergent containing the dye to be screened. III. Method for Determining Wash Removability • a.) Prepare two separate 150 ml aliquots of HDL detergent solution, according to AATCC Test Method 61-2003, Test 2A and containing 1.55 g/liter of the AATCC HDL formula in distilled water. • b.) A 15 cm×5 cm sample of each fabric swatch from the Method for Determining of Hueing Efficiency For Detergents described above is washed in a Launderometer for 45 minutes at 49° C. in 150 ml of a the HDL detergent solution prepared according to Step 11. a.) above. • c.) The samples are rinsed with separate aliquots of rinse water and air dried in the dark, and then L*, a*, and b* value measurements of each swatch are taken using a Hunter LabScan XE reflectance spectrophotometer with D65 illumination, 10° observer and UV filter excluded. The amount of residual coloration is assessed by measuring the DE*res, calculated using the following equation: DE*res=((L*c−L*s)^2+(a*c−a*s)^2+(b*c−b*s)^2)^1/2 • wherein the subscripts c and s respectively refer to the L*, a*, and b* values measured for the control, i.e., the fabric sample initially washed in detergent with no dye, and the fabric sample initially washed in detergent containing the dye to be screened. The wash removal value for the dye is then calculated according to the formula: % removal=100×(1−DE*res/DE*eff) C. Test Results […]

| Compound | % Dye in Water Layer (Aqueous Partition Value) |
| --- | --- |
| CC[N+](CC)(CC)CCOCCOCCN(CCOCC[N+](CC)(CC)CC)c1cc(C)c(/N=N/c2sc(C#N)c(C)c2C#N)cc1OC [Example 18] | 49% |
| COc1cc(/N=N/c2sc(C#N)c(C)c2C#N)c(C)cc1N(CCOCCOCC[N+](C)(C)CCO)CCOCC[N+](C)(C)CCO [Example 21] | 75% |
| COc1cc(/N=N/c2sc(C#N)c(C)c2C#N)c(C)cc1N(CCOCCOCC[N+](CCO)(CCO)CCO)CCOCC[N+](CCO)(CCO)CCO [Example 22] | 56% |
| CC[N+](CC)(CC)CCN(CC[N+](CC)(CC)CC)c1ccc(/N=N/c2sc(C#N)c(C)c2C#N)c(C)c1 [Example 36] | 94% |
| CCN(CCOCCOCCOCCOCC[N+](CC)(CC)CC)c1ccc(/N=N/c2sc(C#N)c(C)c2C#N)c(C)c1 [Example 12] | 15% |
| CC[N+](CC)(CC)CCOCCOCCN(CCOCC[N+](CC)(CC)CC)c1cc(OC)c(/N=N/c2sc(C#N)c(C)c2C#N)cc1OC [Example 19] | 78% |
| COc1cc(/N=N/c2sc(C#N)c(C)c2C#N)c(C)cc1N(CCn1cc[n+](C)c1)CCn1cc[n+](C)c1 [Example 1] | 97% |

The remaining lines, values ahead:

| % Dye in Water Layer (Aqueous Partition Value) | Compound |
| --- | --- |
| 15% | CCN(CC[N+](CC)(CC)CC)c1ccc(/N=N/c2sc(C#N)c(C)c2C#N)c(C)c1 [Example 7] |
| 83% | Cc1cc(N(CCn2cc[n+](C)c2)CCn2cc[n+](C)c2)ccc1/N=N/c1sc(C#N)c(C)c1C#N [Example 2] |
| 66% | CC[N+](CC)(CC)CCOCCOCCN(CCOCC[N+](CC)(CC)CC)c1ccc(/N=N/c2sc(C#N)c(C)c2C#N)c(C)c1 [Example 35] |
| 20% | CCN(CCOCCOCCOCCOCCn1cc[n+](C)c1)c1ccc(/N=N/c2sc(C#N)c(C)c2C#N)c(C)c1 [Example 13] |
